For data set [1] the following is noted: background statement; cited from earlier work.
Data set [2] in a line: Stability, hygroscopicity and crystallization of salts and compositions. In kind it is physicochemical.
Data set [3] in a line: pH measurement of oral solutions diluted with water 1:10 and of sodium sulindac solution. It counts as physicochemical. An excerpt:
The results are shown below.

For `CC1=C(CC(=O)O)c2cc(F)ccc2/C1=C\c1ccc([S+](C)[O-])cc1` (stereo not drawn) [Sulindac], the “absorption from the gastrointestinal tract” value in data set [1] is “erratically absorbed”.
For `CC1=C(CC(=O)O)c2cc(F)ccc2/C1=C\c1ccc([S+](C)[O-])cc1` (stereo not drawn) [calcium sulindac], the stability result in data set [2] is listed as “good stability”. Further, the “pH of solutions, in words” value in data set [3] (compared with sodium sulindac solutions) is “acceptable for formulation”.
Take `CC1=C(CC(=O)O)c2cc(F)ccc2/C1=C\c1ccc([S+](C)[O-])cc1` (stereo not drawn) [sodium sulindac]: in data set [2], the hygroscopicity entry is listed as “strongly hygroscopic”. In data set [2] (in our hands), the crystallization entry is recorded as “difficult to crystallize”. In addition, the “pH of aqueous solution” value in data set [3] (aqueous solution, 4%) amounted to 10.99.

Values taken from US4880835A, “Oral liquid pharmaceutical compositions of sulindac” (Formulations Development Labs, Inc., priority 1988, dated 1989).
